Assay [1] deals with acute lymphoblastic leukemia xenograft. The settings on record: NOS/SCID xenograft mouse model of acute lymphoblastic leukemia; Teachey et al, Blood 2006; cited from earlier work.
In another assay the target is PI3 Kinase α (Homo sapiens, UniProt P42336). Nature of the assay: PI3K fluorescence polarization assay (PI3 Kinase α).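 Further: enzyme reaction with inhibitor or DMSO control, 30–60 min at room temperature, stopped by EDTA, then TAMRA detector with GST-GRP fluorescence polarization read after 90–110 min.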 The class given is biochemical. The conditions noted are these: 20 uM PIP2, 25 uM ATP. A general note: Fluorescence polarisation rises when a labelled molecule tumbles more slowly, as on binding a larger partner.
The target in the next assay is PI3 Kinase γ (Homo sapiens, UniProt P48736). Nature of the assay: PI3K fluorescence polarization assay (PI3 Kinase γ). The assay is classed as biochemical. The settings on record: 20 uM PIP2, 25 uM ATP. As to the method: Buffers: Reaction Buffer: 20 mM HEPES pH7.5, 2 mM MgCl2, 0.05% CHAPS, and 0.01% bME (added fresh); STOP/detection Buffer: 100 mM HEPES pH7.5, 4 mM EDTA, 0.05% CHAPS. STOCKS: ATP 20 mM in H2O; PIP2 (diC8, Echelon cat# P-4508) 1 mM in H2O MW=856.5; GST-murine GRP 1.5 mg/ml in 17% glycerol; Red detector probe-Echelon (TAMRA) 2.5 uM. Plate: Nunc 384 well black polypropylene fluor. Plate.
Assay: The assay is run by putting 9.5 ul of freshly diluted enzyme (in “reaction buffer”) per well, then 0.5 ul of diluted drug or DMSO mixing. Then 10 ul of substrate is added to start the reaction. The mixture is incubated 30-60 minutes, room temp, then stopped with 20 ul of stop/detector mix. The substrate solution, is 40 μM PIP2 and 50 uM ATP in reaction buffer. Addition of 10 ul of substrate to each well starts the reaction. This is 20 uM PIP2, 25 uM ATP final in reaction.
Stop/detector mix: 10 nM TAMRA detector, 40 nM GST-GRP in STOP/detection buffer. To stop reaction: add 20 ul Stop/detector mix per well and mix well. Wait 90-110 minutes before reading plate. Plates are read on Perkin-Elmer Envision plate readers with filters for Tamra. Keep Red probe solutions dark. This procedure is adapted from Echelon Biosciences Inc procedure for their PI3-Kinase fluorescence polarization activity Assay kit Product number K-1100.

The target in a further assay is T1, human TOR (Homo sapiens, UniProt P42345).
T1 construct: FLAG
The assay can be described thus: human TOR kinase assay with purified enzyme, DELFIA format.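 Further: 2 h kinase reaction at room temperature, phosphorylation of S6K at T389 detected with a europium-labelled antibody after plate capture, DMSO vehicle as control.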 The assay is classed as biochemical. The conditions noted are these: FLAG-TOR, 100 μM ATP, His6-S6K substrate.

One may read the pIC50 as the negative decadic logarithm of the IC50, by convention in mol/L.

pIC50: −log10 of the molar value.

Chain of PI3 Kinase α (P42336 whole entry): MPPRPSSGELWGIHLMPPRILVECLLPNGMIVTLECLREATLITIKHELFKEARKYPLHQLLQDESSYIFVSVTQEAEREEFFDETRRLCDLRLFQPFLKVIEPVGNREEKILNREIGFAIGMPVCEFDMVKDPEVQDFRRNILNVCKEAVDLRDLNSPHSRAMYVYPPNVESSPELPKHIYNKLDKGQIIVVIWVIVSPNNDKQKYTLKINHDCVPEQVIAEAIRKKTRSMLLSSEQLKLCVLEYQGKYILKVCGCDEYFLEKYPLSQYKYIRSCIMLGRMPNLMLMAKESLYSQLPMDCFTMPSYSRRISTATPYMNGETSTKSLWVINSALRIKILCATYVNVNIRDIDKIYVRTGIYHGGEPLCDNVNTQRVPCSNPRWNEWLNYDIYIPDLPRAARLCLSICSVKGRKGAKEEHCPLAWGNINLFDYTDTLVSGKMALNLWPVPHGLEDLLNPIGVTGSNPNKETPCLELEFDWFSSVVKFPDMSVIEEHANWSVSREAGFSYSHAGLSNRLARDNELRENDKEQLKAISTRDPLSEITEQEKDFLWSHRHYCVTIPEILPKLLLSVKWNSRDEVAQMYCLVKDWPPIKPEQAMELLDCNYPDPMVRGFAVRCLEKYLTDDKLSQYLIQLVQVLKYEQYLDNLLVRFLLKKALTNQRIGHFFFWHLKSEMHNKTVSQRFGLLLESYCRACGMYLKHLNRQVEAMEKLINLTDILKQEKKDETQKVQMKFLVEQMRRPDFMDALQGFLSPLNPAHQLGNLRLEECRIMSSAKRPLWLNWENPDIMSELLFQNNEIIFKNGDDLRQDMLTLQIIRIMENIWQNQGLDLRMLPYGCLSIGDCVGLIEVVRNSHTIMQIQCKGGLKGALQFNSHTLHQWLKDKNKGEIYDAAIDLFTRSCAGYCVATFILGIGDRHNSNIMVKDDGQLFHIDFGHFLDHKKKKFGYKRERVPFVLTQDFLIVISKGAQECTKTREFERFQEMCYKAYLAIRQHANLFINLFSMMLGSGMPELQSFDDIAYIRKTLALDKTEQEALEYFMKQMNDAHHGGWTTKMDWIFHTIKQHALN
Chain of PI3 Kinase α (P27986 whole entry partner): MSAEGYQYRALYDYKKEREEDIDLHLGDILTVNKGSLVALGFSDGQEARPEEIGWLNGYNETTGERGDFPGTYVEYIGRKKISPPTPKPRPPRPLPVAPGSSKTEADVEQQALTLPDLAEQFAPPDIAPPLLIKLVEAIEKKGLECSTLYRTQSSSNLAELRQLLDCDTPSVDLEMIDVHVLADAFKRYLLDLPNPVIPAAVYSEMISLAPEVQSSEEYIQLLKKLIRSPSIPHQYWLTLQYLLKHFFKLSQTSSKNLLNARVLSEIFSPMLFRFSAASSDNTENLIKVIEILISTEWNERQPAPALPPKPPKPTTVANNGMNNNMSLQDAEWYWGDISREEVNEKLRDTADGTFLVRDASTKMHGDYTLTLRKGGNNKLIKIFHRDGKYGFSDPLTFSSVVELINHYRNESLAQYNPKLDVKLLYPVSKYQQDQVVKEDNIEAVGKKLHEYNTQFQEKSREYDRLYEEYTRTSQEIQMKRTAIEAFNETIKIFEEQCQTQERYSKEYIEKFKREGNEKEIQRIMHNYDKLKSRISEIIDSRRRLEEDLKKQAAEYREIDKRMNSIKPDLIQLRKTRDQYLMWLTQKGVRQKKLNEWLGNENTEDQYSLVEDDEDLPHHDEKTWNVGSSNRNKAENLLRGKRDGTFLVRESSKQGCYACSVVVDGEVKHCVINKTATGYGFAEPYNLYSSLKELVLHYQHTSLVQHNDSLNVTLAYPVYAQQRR
Chain of PI3 Kinase γ (P48736 whole entry): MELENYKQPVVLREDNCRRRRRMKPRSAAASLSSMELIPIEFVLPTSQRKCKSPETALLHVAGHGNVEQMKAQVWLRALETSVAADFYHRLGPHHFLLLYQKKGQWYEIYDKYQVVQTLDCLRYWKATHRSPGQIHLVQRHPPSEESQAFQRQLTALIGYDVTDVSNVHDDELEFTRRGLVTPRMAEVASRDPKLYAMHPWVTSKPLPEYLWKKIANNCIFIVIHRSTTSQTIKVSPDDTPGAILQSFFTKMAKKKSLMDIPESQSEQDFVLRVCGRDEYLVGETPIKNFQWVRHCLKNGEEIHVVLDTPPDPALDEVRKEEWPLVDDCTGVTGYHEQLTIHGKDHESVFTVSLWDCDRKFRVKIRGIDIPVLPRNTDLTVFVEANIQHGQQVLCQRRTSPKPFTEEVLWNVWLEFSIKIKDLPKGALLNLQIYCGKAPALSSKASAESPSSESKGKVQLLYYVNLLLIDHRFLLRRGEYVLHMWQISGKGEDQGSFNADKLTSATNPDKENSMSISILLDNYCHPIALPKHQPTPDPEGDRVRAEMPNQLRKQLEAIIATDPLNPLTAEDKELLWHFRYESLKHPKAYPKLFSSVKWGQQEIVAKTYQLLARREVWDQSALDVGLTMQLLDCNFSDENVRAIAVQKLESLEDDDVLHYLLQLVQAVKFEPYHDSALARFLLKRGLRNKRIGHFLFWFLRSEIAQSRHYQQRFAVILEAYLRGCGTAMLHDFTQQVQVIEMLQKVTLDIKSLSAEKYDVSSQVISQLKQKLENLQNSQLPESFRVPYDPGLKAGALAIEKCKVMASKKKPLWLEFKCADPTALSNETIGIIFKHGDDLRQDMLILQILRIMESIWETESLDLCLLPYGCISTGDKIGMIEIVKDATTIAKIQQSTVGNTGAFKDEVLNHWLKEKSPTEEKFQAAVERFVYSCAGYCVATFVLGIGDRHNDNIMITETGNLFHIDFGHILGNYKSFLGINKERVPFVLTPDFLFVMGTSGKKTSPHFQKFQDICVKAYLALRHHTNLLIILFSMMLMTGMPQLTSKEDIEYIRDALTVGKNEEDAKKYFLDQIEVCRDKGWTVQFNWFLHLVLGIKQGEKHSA

For `CO[C@H]1C[C@@H]2CC[C@@H](C)[C@@](O)(O2)C(=O)C(=O)N2CCCC[C@H]2C(=O)O[C@H]([C@H](C)C[C@@H]2CC[C@@H](OC(=O)C(C)(CO)CO)[C@H](OC)C2)CC(=O)[C@H](C)/C=C(\C)[C@@H](O)[C@@H](OC)C(=O)[C@H](C)C[C@H](C)/C=C/C=C/C=C/1C` [Torisel], the “activity in xenograft model” value in assay [1] was “active”.

As to `OCc1cccc(-c2nc(N3CCOCC3)c3[nH]cc(CN4CCN(Cc5ccccc5)CC4)c3n2)c1` [Example 15], the pIC50 on PI3 Kinase α is 6.62; against PI3 Kinase γ it was 5.62; on human TOR, 5.24.

On to `Oc1cccc(-c2nc(N3CCOCC3)c3[nH]cc(CN4CCCC4)c3n2)c1` [Example 17, 3-[4-morpholin-4-yl-7-(pyrrolidin-1-ylmethyl)-5H-pyrrolo[3,2-d]pyrimidin-2-yl]phenol], for which the negative-log IC50 (pIC50) at PI3 Kinase α was 6.98; on PI3 Kinase γ, 5.81; against human TOR, 5.49.

Turning to `O=C1COCCN1c1nc(-c2cccc(O)c2)nc2cc[nH]c12` [Example 48, 4-[2-(3-hydroxyphenyl)-5H-pyrrolo[3,2-d]pyrimidin-4-yl]morpholin-3-one], the pIC50 at PI3 Kinase α is 5.93; at PI3 Kinase γ it was 5.70; against human TOR, 6.30.

Turning to `Oc1cccc(-c2nc(N3CCOCC3)c3[nH]cc(C4CCN(Cc5ccccc5F)CC4)c3n2)c1` [Example 32, 3-{7-[1-(2-fluorobenzyl)piperidin-4-yl]-4-morpholin-4-yl-5H-pyrrolo[3,2-d]pyrimidin-2-yl}phenol], the values for the pIC50 at PI3 Kinase α, on PI3 Kinase γ and on human TOR were 6.78, 5.72 and 6.48, respectively.

For `CN(C)CCNC(=O)Nc1cccc(-c2nc(N3CCOCC3)c3[nH]ccc3n2)c1` [Example 40, 1-[2-(dimethylamino)ethyl]-3-[3-(4-morpholin-4-yl-5H-pyrrolo[3,2-d]pyrimidin-2-yl)phenyl]urea], the pIC50 on PI3 Kinase α is 5.33; against PI3 Kinase γ, 5.02; against human TOR it was < 5.40.

For the compound `OCc1cccc(-c2nc(N3CCOCC3)c3[nH]cc(CNCCN4CCCCC4)c3n2)c1` [Example 8, [3-(4-morpholin-4-yl-7-{[(2-piperidin-1-ylethyl)amino]methyl}-5H-pyrrolo[3,2-d]pyrimidin-2-yl)phenyl]methanol], the pIC50 was 7.14 against PI3 Kinase α, 5.37 on PI3 Kinase γ and 4.95 against human TOR.

As to `O=C(NCCCO)Nc1cccc(-c2nc(N3CCOCC3)c3[nH]ccc3n2)c1` [Example 41, 1-(3-hydroxypropyl)-3-[3-(4-morpholin-4-yl-5H-pyrrolo[3,2-d]pyrimidin-2-yl)phenyl]urea], the pIC50 at PI3 Kinase α is 5.21; on PI3 Kinase γ, < 5.00; against human TOR it was < 5.40.

As to `CN1CCC(c2c[nH]c3c(N4CCOCC4)nc(-c4cccc(O)c4)nc23)CC1` [Example 30, 3-[7-(1-methylpiperidin-4-yl)-4-morpholin-4-yl-5H-pyrrolo[3,2-d]pyrimidin-2-yl]phenol], the results for the pIC50 against PI3 Kinase α, on PI3 Kinase γ and at human TOR were 6.32, 6.08 and 5.43, respectively.

As for `Oc1cccc(-c2nc(N3CCOCC3)c3[nH]cc(C4CCN(C5CCCCC5)CC4)c3n2)c1` [Example 31, 3-[7-(1-cyclohexylpiperidin-4-yl)-4-morpholin-4-yl-5H-pyrrolo[3,2-d]pyrimidin-2-yl]phenol], the pIC50 on PI3 Kinase α is 6.60; at PI3 Kinase γ it was 5.60; at human TOR, 6.43.

For `CN1CCN(Cc2c[nH]c3c(N4CCOCC4)nc(-c4cccc(CO)c4)nc23)CC1` [Example 10], the pIC50 was 7.21 against PI3 Kinase α, 5.69 against PI3 Kinase γ and 5.11 on human TOR.

Consider `C1=C(c2c[nH]c3c(N4CCOCC4)nc(-c4cccc(OCc5ccccc5)c4)nc23)CCNC1` [Example 21, 2-[3-(benzyloxy)phenyl]-4-morpholin-4-yl-7-(1,2,3,6-tetrahydropyridin-4-yl)-5H-pyrrolo[3,2-d]pyrimidine], for which the pIC50 against PI3 Kinase α is < 5.00; against PI3 Kinase γ, < 5.00; against human TOR it was 5.15.

Consider `CNC(=O)Nc1ccc(-c2nc(N3CCOCC3)c3[nH]ccc3n2)cc1` [Example 6, 1-methyl-3-[4-(4-morpholin-4-yl-5H-pyrrolo[3,2-d]pyrimidin-2-yl)phenyl]urea], for which the pIC50 is 5.57 against PI3 Kinase α, 5.30 on PI3 Kinase γ and 6.66 at human TOR.

Turning to `O=C(NCc1cccnc1)Nc1cccc(-c2nc(N3CCOCC3)c3[nH]ccc3n2)c1` [Example 44, 1-[3-(4-morpholin-4-yl-5H-pyrrolo[3,2-d]pyrimidin-2-yl)phenyl]-3-(pyridin-3-ylmethyl)urea], the pIC50 was < 5.00 against PI3 Kinase α, < 5.00 on PI3 Kinase γ and < 5.40 against human TOR.

In the case of `CC(C)(C)OC(=O)NCCN1CCC(c2c[nH]c3c(N4CCOCC4)nc(-c4cccc(O)c4)nc23)CC1` [Example 36, tert-Butyl (2-{4-[2-(3-hydroxyphenyl)-4-morpholin-4-yl-5H-pyrrolo[3,2-d]pyrimidin-7-yl]piperidin-1-yl}ethyl)carbamate], the pIC50 on PI3 Kinase α was 6.65; against PI3 Kinase γ it was 5.76; at human TOR it was 6.24.

Consider `CC(C)CN1CCC(c2c[nH]c3c(N4CCOCC4)nc(-c4cccc(O)c4)nc23)CC1` [Example 29, 3-[7-(1-isobutylpiperidin-4-yl)-4-morpholin-4-yl-5H-pyrrolo[3,2-d]pyrimidin-2-yl]phenol], for which the results for the pIC50 against PI3 Kinase α, against PI3 Kinase γ and on human TOR were 6.30, 5.72 and 5.50, respectively.

With `COC(=O)Cn1ccc2nc(-c3cccc(CO)c3)nc(N3CCOCC3)c21` [Example 46, Methyl {2-[3-(hydroxymethyl)phenyl]-4-morpholin-4-yl-5H-pyrrolo[3,2-d]pyrimidin-5-yl}acetate], the pIC50 against PI3 Kinase α was 5.62; on PI3 Kinase γ it was 5.57; against human TOR it was < 5.40.

Regarding `OCc1cccc(-c2nc(N3CCOCC3)c3[nH]cc(C4=CCN(Cc5ccccc5)CC4)c3n2)c1` [Example 25, {3-[7-(1-benzyl-1,2,3,6-tetrahydropyridin-4-yl)-4-morpholin-4-yl-5H-pyrrolo[3,2-d]pyrimidin-2-yl]phenyl}methanol], the pIC50 against PI3 Kinase α was 6.59; on PI3 Kinase γ, 5.55; against human TOR, 5.77.

On to `Oc1cccc(-c2nc(N3CCOCC3)c3[nH]cc(CNCc4cccnc4)c3n2)c1` [Example 16, 3-(4-morpholin-4-yl-7-{[(pyridin-3-ylmethyl)amino]methyl}-5H-pyrrolo[3,2-d]pyrimidin-2-yl)phenol], for which the pIC50 on PI3 Kinase α was 6.74; against PI3 Kinase γ, 5.52; at human TOR it was < 5.40.

Source of the values: patent US20090149458A1, “PYRROLO[3,2-d]PYRIMIDINE COMPOUNDS AND THEIR USE AS PI3 KINASE AND mTOR KINASE INHIBITORS” (Wyeth, priority 2007, published 2009).
